≈ marks a conversion by molar mass, not a printed value. Read-outs that look alike come from different tables or passages of the source. Ends that are not written are not given here.
Legend:
P. aeruginosa PAO1 [1] = assay: Relative time for killing (luminescence measured at intervals); type: cell-based; conditions: peptide at ten times its EC50 (SMAP29X-18D 15.7 X, SMAP29X-14A 17.4 X), 25 mM ionic strength
P. aeruginosa MR 3007 = conditions: for MIC P. aeruginosa [NaCl] High / MIC P. aeruginosa [NaCl] Low: MR 3007, pH 7.4
P. aeruginosa PAO1 [2] = conditions: avg ± sem
S. aureus 930918-3 = conditions: for MIC S. aureus [NaCl] High / MIC S. aureus [NaCl] Low: 930918-3, pH 7.4
E. coli DH5α = conditions: for EC50: DH5α; for EC50 E. coli DH5α: ionic strength 25 mM, avg ± sem
E. coli ML-35p = conditions: for MIC E. coli [NaCl] High: high salt underlay (10 mM sodium phosphate buffer +100 mM NaCl, pH 7.4); for MIC E. coli [NaCl] High / MIC E. coli [NaCl] Low: Table 13; for MIC E. coli [NaCl] Low: low salt underlay (10 mM sodium phosphate buffer, pH 7.4); for E. coli ML-35p MIC, 0 mM NaCl: underlay 0 mM NaCl; for E. coli ML-35p MIC, 0 mM NaCl / E. coli ML-35p MIC, 175 mM NaCl: Table 15; for E. coli ML-35p MIC, 175 mM NaCl: underlay 175 mM NaCl
MRSA ATCC 33591 = conditions: for MIC MRSA [NaCl] High / MIC MRSA [NaCl] Low: ATCC 33591, pH 7.4
B. cepacia ATCC 25416 = assay: Two stage radial diffusion assay (MIC); type: cell-based; design: unit not given here; conditions: underlay 0 mM NaCl
N. gonorrhoeae = assay: Two stage radial diffusion assay (MIC); type: cell-based; design: unit not given here; conditions: done only at 100 mM NaCl; for N. gonorrhoeae F 62 (serum-sensitive): strain F 62 (serum-sensitive); for N. gonorrhoeae FA 19 (serum-resistant): strain FA 19 (serum-resistant)
L. monocytogenes EGD = assay: Two stage radial diffusion assay (MIC); type: cell-based; design: unit not given here; conditions: underlay 0 mM NaCl
[3] = test system: vancomycin and methicillin-resistant Gram-positives
Staphylococcus aureus = conditions: Staphylococcus aureus, cited from earlier work
Mycoplasma pneumoniae = conditions: cited from earlier work
Mycoplasma hominis = conditions: cited from earlier work
[4] = E.f 142-1498-1 (Enterococcus fecaelis), Van A (vancomycin-resistant)
[5] = E.f 142-6873-3 (Enterococcus fecaelis), Van B (vancomycin-resistant)

Compound | Half-time of Killing (min. avg. ± sem) (P. aeruginosa PAO1 [1]) | MIC P. aeruginosa [NaCl] High (P. aeruginosa MR 3007) | MIC P. aeruginosa [NaCl] Low (P. aeruginosa MR 3007) | EC50 P. aeruginosa PAO1 (P. aeruginosa PAO1 [2]; ionic strength 25 mM) | EC50 P. aeruginosa PAO1 (P. aeruginosa PAO1 [2]; ionic strength 175 mM) | MIC S. aureus [NaCl] High (S. aureus 930918-3) | MIC S. aureus [NaCl] Low (S. aureus 930918-3) | EC50 (E. coli DH5α) | EC50 E. coli DH5α (E. coli DH5α) | MIC E. coli [NaCl] High (E. coli ML-35p) | MIC E. coli [NaCl] Low (E. coli ML-35p) | MIC MRSA [NaCl] High (MRSA ATCC 33591) | MIC MRSA [NaCl] Low (MRSA ATCC 33591) | also measured
LRKFRNKIKEKLKKIGQKI [CAP18-19] | 8.0 ± 1.6 min | 26.7 µg/mL | 1.0 µg/mL | 1.65 ± 0.27 µg/mL | 3.06 ± 0.36 µg/mL | >79.1 µg/mL | 6.0 µg/mL | 0.96 ± 0.13 µM | 2.27 ± 0.30 µg/mL | 18.2 µg/mL | 0.4 µg/mL | >79.1 µg/mL | 4.5 µg/mL | 
RKRLRKFRNKIKEKLKKIGQKI [CAP18-22] | 9.8 ± 2.5 min | 7.6 µg/mL | 0.7 µg/mL | 1.38 ± 0.49 µg/mL | 0.88 ± 0.12 µg/mL | >79.1 µg/mL | 7.9 µg/mL | 0.52 ± 0.16 µM | 1.47 ± 0.44 µg/mL | 1.7 µg/mL | 0.1 µg/mL | >79.1 µg/mL | 8.1 µg/mL | 
GLRKRLRKFRNKIKEKLKKIGQKIQGLLPKLAPRTDY [CAP 18] | 4.0 ± 1.4 min | 1.6 µg/mL | 0.2 µg/mL | 0.98 ± 0.24 µg/mL | 0.50 ± 0.10 µg/mL | 2.8 µg/mL | 1.8 µg/mL | 0.15 ± 0.02 µM | 0.69 ± 0.08 µg/mL | 0.4 µg/mL | 0.2 µg/mL | 6.1 µg/mL | 8.2 µg/mL | 
KNLRRIIRKIIHIIKKYG [Peptide 8] |  |  |  |  |  |  |  |  |  |  |  |  |  | B. cepacia ATCC 25416 in underlays of low, normal and high salinity, 0 mM NaCl (B. cepacia ATCC 25416): 20.2; P. aeruginosa MR-3007 MIC, 0 mM NaCl (P. aeruginosa MR 3007): 0.67 ± 0.12 µg/mL; P. aeruginosa MR-3007 MIC, 175 mM NaCl (P. aeruginosa MR 3007): 0.59 ± 0.05 µg/mL; N. gonorrhoeae F 62 (serum-sensitive) (N. gonorrhoeae): 0.5; N. gonorrhoeae FA 19 (serum-resistant) (N. gonorrhoeae): 0.2; P. aeruginosa PA-01 MIC, 0 mM NaCl (P. aeruginosa PA-01): 0.83 ± 0.05 µg/mL; P. aeruginosa PA-01 MIC, 175 mM NaCl (P. aeruginosa PA-01): 0.82 ± 0.05 µg/mL; E. coli DH-5α MIC, 0 mM NaCl (E. coli DH-5α; DH-5α): 0.26 ± 0.05 µg/mL; E. coli DH-5α MIC, 175 mM NaCl (E. coli DH-5α; DH-5α): 0.35 ± 0.09 µg/mL; S. aureus 930918-3 MIC, 0 mM NaCl (S. aureus 930918-3): 0.84 ± 0.14 µg/mL; S. aureus 930918-3 MIC, 175 mM NaCl (S. aureus 930918-3): 0.86 ± 0.06 µg/mL; E. coli ML-35p MIC, 0 mM NaCl (E. coli ML-35p): 0.45 ± 0.10 µg/mL; E. coli ML-35p MIC, 175 mM NaCl (E. coli ML-35p): 0.41 ± 0.06 µg/mL; L. monocytogenes in underlays of low, normal and high salinity, 0 mM NaCl (L. monocytogenes EGD): 2.1; MRSA ATCC 33591 MIC, 0 mM NaCl (MRSA ATCC 33591): 0.77 ± 0.04 µg/mL; MRSA ATCC 33591 MIC, 175 mM NaCl (MRSA ATCC 33591): 0.89 ± 0.05 µg/mL
GLRKRLRKFRNKIKEKLKKIG [CAP18-21a] | 9.2 ± 3.4 min | 0.9 µg/mL | 0.7 µg/mL | 0.58 ± 0.09 µg/mL | 0.54 ± 0.10 µg/mL | 2.2 µg/mL | 1.8 µg/mL | 0.19 ± 0.01 µM | 0.48 ± 0.03 µg/mL | 0.4 µg/mL | 2.3 µg/mL | >250 µg/mL | 19.4 µg/mL | 
KNLRRIIRKIIHIIKKYGPTILRIIRIIG-NH2 [Peptide 28] |  |  |  |  |  |  |  |  |  |  |  |  |  | B. cepacia ATCC 25416 in underlays of low, normal and high salinity, 0 mM NaCl (B. cepacia ATCC 25416): 17.0; P. aeruginosa MR-3007 MIC, 0 mM NaCl (P. aeruginosa MR 3007): 0.34 ± 0.22 µg/mL; P. aeruginosa MR-3007 MIC, 175 mM NaCl (P. aeruginosa MR 3007): 0.49 ± 0.06 µg/mL; N. gonorrhoeae F 62 (serum-sensitive) (N. gonorrhoeae): 0.1; N. gonorrhoeae FA 19 (serum-resistant) (N. gonorrhoeae): 0.1; P. aeruginosa PA-01 MIC, 0 mM NaCl (P. aeruginosa PA-01): 0.53 ± 0.14 µg/mL; P. aeruginosa PA-01 MIC, 175 mM NaCl (P. aeruginosa PA-01): 1.17 ± 0.23 µg/mL; E. coli DH-5α MIC, 175 mM NaCl (E. coli DH-5α; DH-5α): 0.40 ± 0.09 µg/mL; E. coli DH-5α MIC, 0 mM NaCl (E. coli DH-5α; underlay 0 mM NaCl): 0.0042 µg/mL; S. aureus 930918-3 MIC, 0 mM NaCl (S. aureus 930918-3): 0.55 ± 0.17 µg/mL; S. aureus 930918-3 MIC, 175 mM NaCl (S. aureus 930918-3): 1.14 ± 0.23 µg/mL; E. coli ML-35p MIC, 0 mM NaCl (E. coli ML-35p): 0.16 ± 0.03 µg/mL; E. coli ML-35p MIC, 175 mM NaCl (E. coli ML-35p): 0.58 ± 0.12 µg/mL; L. monocytogenes in underlays of low, normal and high salinity, 0 mM NaCl (L. monocytogenes EGD): 0.4; MRSA ATCC 33591 MIC, 0 mM NaCl (MRSA ATCC 33591): 0.32 ± 0.04 µg/mL; MRSA ATCC 33591 MIC, 175 mM NaCl (MRSA ATCC 33591): 1.57 ± 0.30 µg/mL
KRLRKFRNKIKEKLKKIG [CAP18-18] | 19.5 ± 8.2 min | 3.2 µg/mL | 2.1 µg/mL | 1.05 ± 0.37 µg/mL | 1.59 ± 0.29 µg/mL | 29.0 µg/mL | 9.7 µg/mL | 0.2 ± 0.03 µM | 0.47 ± 0.06 µg/mL | 1.5 µg/mL | 2.8 µg/mL | >250 µg/mL | 14.9 µg/mL | 
LRRIIRKIIHIIKK-NH2 [SMAP29X-14A] | 20.9 min | 2.7 µg/mL | 2.0 µg/mL | 0.23 ± 0.03 µg/mL | 1.59 ± 0.22 µg/mL | 1.9 µg/mL | 1.1 µg/mL |  |  | 0.9 µg/mL | 2.9 µg/mL | >79.1 µg/mL | 7.6 µg/mL | MIC [3, 4]: >64 µg/mL; MIC [3, 5]: >64 µg/mL
CCC[C@@H]1C[C@@H](C(=O)N[C@@H]([C@H]2O[C@H](SC)[C@H](O)[C@@H](O)[C@H]2O)[C@@H](C)O)N(C)C1 [LINCOMYCIN, lincomycin] |  |  |  |  |  |  |  |  |  |  |  |  |  | Range (Staphylococcus aureus; MIC range): 0.5–512; MIC50 (Staphylococcus aureus): 1 µg/mL (≈ 2.46 µM); MIC90 (Staphylococcus aureus): 1 µg/mL (≈ 2.46 µM); Range (Mycoplasma pneumoniae; MIC range): 2–32; MIC50 (Mycoplasma pneumoniae): 8 µg/mL (≈ 19.7 µM); MIC90 (Mycoplasma pneumoniae): 32 µg/mL (≈ 78.7 µM); Range (Mycoplasma hominis; MIC range): 0.5–16; MIC50 (Mycoplasma hominis): 2 µg/mL (≈ 4.92 µM); MIC90 (Mycoplasma hominis): 4 µg/mL (≈ 9.84 µM)
KNLRRIIRKIIHIIKKYG [SMAP29X-18D] | 2.9 min | 0.5 µg/mL | 1.1 µg/mL | 0.29 ± 0.01 µg/mL | 0.58 ± 0.05 µg/mL | 1.4 µg/mL | 2.0 µg/mL |  |  | 0.5 µg/mL | 0.8 µg/mL | 0.8 µg/mL | 8.7 µg/mL | MIC [3, 4]: 32 µg/mL; MIC [3, 5]: 64 µg/mL
LRRIIRKIIHIIKK-NH2 [Peptide 11] |  |  |  |  |  |  |  |  |  |  |  |  |  | B. cepacia ATCC 25416 in underlays of low, normal and high salinity, 0 mM NaCl (B. cepacia ATCC 25416): >79.1; P. aeruginosa MR-3007 MIC, 0 mM NaCl (P. aeruginosa MR 3007): 0.92 ± 0.06 µg/mL; P. aeruginosa MR-3007 MIC, 175 mM NaCl (P. aeruginosa MR 3007): 20.1 ± 6.9 µg/mL; N. gonorrhoeae F 62 (serum-sensitive) (N. gonorrhoeae): 0.8; N. gonorrhoeae FA 19 (serum-resistant) (N. gonorrhoeae): 0.9; P. aeruginosa PA-01 MIC, 0 mM NaCl (P. aeruginosa PA-01): 0.96 ± 0.05 µg/mL; P. aeruginosa PA-01 MIC, 175 mM NaCl (P. aeruginosa PA-01): 6.51 ± 1.02 µg/mL; E. coli DH-5α MIC, 0 mM NaCl (E. coli DH-5α; DH-5α): 0.85 ± 0.04 µg/mL; E. coli DH-5α MIC, 175 mM NaCl (E. coli DH-5α; DH-5α): 5.92 ± 1.02 µg/mL; S. aureus 930918-3 MIC, 0 mM NaCl (S. aureus 930918-3): 1.38 ± 0.21 µg/mL; S. aureus 930918-3 MIC, 175 mM NaCl (S. aureus 930918-3): 16.4 ± 5.1 µg/mL; E. coli ML-35p MIC, 0 mM NaCl (E. coli ML-35p): 0.63 ± 0.05 µg/mL; E. coli ML-35p MIC, 175 mM NaCl (E. coli ML-35p): 49.2 ± 15.2 µg/mL; L. monocytogenes in underlays of low, normal and high salinity, 0 mM NaCl (L. monocytogenes EGD): 0.7; MRSA ATCC 33591 MIC, 0 mM NaCl (MRSA ATCC 33591): 4.42 ± 1.73 µg/mL; MRSA ATCC 33591 MIC, 175 mM NaCl (MRSA ATCC 33591): >79.1 µg/mL
